The structures appear in SMILES notation.

Data set [1] is described as follows: Metabolite profiling and identification in plasma, urine and feces (part A). It counts as in vivo, human healthy male volunteers. As to conditions: male, human, in vivo; for half-life: apparent t½ of metabolite in plasma; for tmax: tmax of metabolite in plasma. How it is done:
Participants were hospitalized from day 1 to day 16 of the study, and further assessed on days 19, 22, and 25 (trial end). […] Pre-dose feces and urine samples were collected on day 1 and day 2, respectively. Urine was collected at 4- to 12-h intervals on day 1 and every 24 h thereafter up to day 16. Feces were collected every 24 h up to day 16. Provision was made to collect further samples up to day 39 if >1% of the administered dose was detectable in the total (urine and feces) excreta per day on two consecutive measurements.
Metabolite profiling and structure elucidation in plasma, urine, and feces were performed at the Institute of Drug Metabolism and Pharmacokinetics, Merck KGaA, Grafing, Germany, using a radiometric UPLC method coupled to a high-resolution MS. For urine and feces, metabolites were identified in a single pooled sample per matrix and subject (urine pool of 4–120 h and feces pool of 0–192 h), that covered at least 90% of the total radioactivity of the respective matrix excreted. Intervals with low radioactivity were not used for the generation of the pooled samples to avoid dilution, and to increase the signal-to-noise ratio of the respective chromatograms.
The metabolite structure elucidation was performed using the linear trap quadrupole Orbitrap XL hybrid Fourier transform (FT) MS (Thermo Scientific, Dreieich, Germany) coupled to a Waters Acquity UPLC system. Full-scan FT spectra were acquired for measurement of the masses of molecular ions of parent and metabolites. MS^2 fragmentation spectra were acquired after high-energy collisional dissociation of the appropriate molecular ions. Allocation and confirmation of the proposed metabolites to the radioactive peaks were performed using an API4000 QTrap (AB Sciex, Darmstadt, Germany) MS with simultaneous splitting using a fraction collection system (CTC HTS PAL Fraction Collector, Axel Semrau, Sprockhövel, Germany), and offline radioactive measurement using a Topcount NXT® microplate scintillation counter (PerkinElmer, Rodgau, Germany).
The maximum plasma concentration (Cmax) and time to reach maximum concentration (tmax) were derived directly from the plasma concentration–time data. Lag time (tlag) was the time prior to the first measurable (non-zero) concentration. The area under the plasma concentration–time curve from 0 to t (last measurable concentration; AUC0–t) was calculated using a mixed log–linear trapezoidal method. Area under the plasma concentration–time curve until the last sampling time (AUCall), which corresponds to AUC0–240 h within the observation period, was used for metabolite calculations. Amounts excreted in urine, feces, and total (urine + feces) were calculated as the sum of amounts (concentration multiplied by volume) for each collection from time 0 to time t. The terminal rate constant (λz) was used to estimate the terminal half-life (t½) (ln 2/λz), and the area under the concentration–time curve from time 0 to infinity (AUC0–∞). Total body clearance (CL) and apparent body clearance (CL/f) were determined by dose/AUC0–∞, and total volume of distribution (Vz) and apparent volume of distribution (Vz/f) were calculated by dose/(AUC0–∞*λz) after IV and oral administration, respectively. Volume of distribution of the central compartment (Vc) was derived by dividing the dose by the initial drug plasma concentration after IV administration. Absolute bioavailability was calculated as F = (AUCoral/doseoral)/(AUCIV/doseIV) × 100. The ratios (%) AUCtepotinib or metabolite/AUCtotal radioactivity were calculated as a percentage of the molar AUCs.

Data set [2] can be described thus: Protein binding and blood cell affinity of M506. The data set is classed as in vitro ADME.

A word on the half-life: it is how long it takes for the measured level to halve. As for `CN1CCC(COc2cnc(-c3cccc(Cn4nc(-c5cccc(C#N)c5)ccc4=O)c3)nc2)CC1=O` (stereo not shown) [M506], the half-life in data set [1] (median) is 92 h; in data set [1] (range), 66 to 145 h. Also, the “% of AUCall of total 14C-radioactivity in plasma” value in data set [1] (po) worked out at 41%. Also, the tmax in data set [1] (po, median) was 24 h; in data set [1] (po, range), 24 to 60 h. In data set [2], the “affinity for blood cells” value was “low affinity for blood cells”. Further, the protein binding entry in data set [2] was “highly protein-bound”.

These data come from publication PMC7497692 (Investigational New Drugs, 2020).
